Test results as given in DBAASP.
≈ marks a conversion by molar mass, not a printed value. Where “and” joins values, the source holds several entries; their conditions need not be identical. Equal entries are not always repeated.

Columns and labels:
Assay in all cases: ≥ marks a high value that may be exact or a test limit, other limits are often not marked, values filed in µg/mL are converted to µM
[1] = system: Acinetobacter baumannii Q13-0717
[2] = system: Staphylococcus aureus ATCC 29213
[3] = system: Klebsiella pneumoniae Q14-0095
[4] = system: Campylobacter jejuni NCTC 11351
[5] = system: Pseudomonas aeruginosa Q14-0208
[6] = system: Staphylococcus aureus Q14-0320
[7] = system: Acinetobacter baumannii Q12-0809
Pseudomonas aeruginosa = system: Pseudomonas aeruginosa
[8] = system: Klebsiella pneumoniae NCTC 13442
[9] = system: Klebsiella pneumoniae ATCC 700603
[10] = system: Pseudomonas aeruginosa ATCC 27853
[11] = system: Staphylococcus aureus NCTC 12493
Escherichia coli = system: Escherichia coli
[12] = system: Staphylococcus aureus CICC 10384
[13] = system: Escherichia coli CICC 10293
[14] = system: Listeria innocua CICC 10417
[15] = system: Staphylococcus pseudintermedius
[16] = system: Enterobacter cloacae CICC 21539
[17] = system: Staphylococcus aureus CICC 10306
Staphylococcus sciuri = system: Staphylococcus sciuri
[18] = system: Serratia marcescens ATCC 4112
[19] = system: Candida albicans CICC 1965
[20] = system: Staphylococcus pseudintermedius MW767056
Microsporum canis = system: Microsporum canis
[21] = system: Pseudomonas aeruginosa CICC 21636
[22] = system: Salmonella enterica subsp. enterica serovar Paratyphi B CICC 10437
Proteus mirabilis = system: Proteus mirabilis
[23] = system: Microsporum canis MW768151
[24] = system: Staphylococcus haemolyticus
Staphylococcus simulans = system: Staphylococcus simulans
[25] = system: Trichophyton mentagrophytes
[26] = system: Staphylococcus cohnii MW767053
[27] = system: Saccharomyces cerevisiae CICC 1002
[28] = system: Aspergillus niger CICC 2124
[29] = system: Bacillus subtilis CICC 10034
[30] = system: Staphylococcus epidermidis CGMCC 1.4260
[31] = system: Escherichia coli CGMCC 1.8732
[32] = system: Klebsiella pneumoniae CGMCC 1.1736
[33] = system: Klebsiella pneumoniae ATCC 13883
[34] = system: Pseudomonas aeruginosa CGMCC 1.2421
[35] = system: Pseudomonas aeruginosa PAO1
[36] = system: Staphylococcus aureus UAMS-1
[37] = system: Staphylococcus epidermidis 1457
[38] = system: Staphylococcus aureus USA 300
[39] = system: Staphylococcus aureus CGMCC 1.8721
[40] = system: Escherichia coli ATCC 25922
[41] = system: Enterococcus faecium ATCC 51559
[42] = system: Pseudomonas aeruginosa E411-17
[43] = system: Acinetobacter baumannii B28-16
[44] = system: Klebsiella pneumoniae E406-17
[45] = system: Enterococcus faecium V284-17
Escherichia coli K-12 = system: Escherichia coli K-12
Escherichia coli E423-17 = system: Escherichia coli E423-17
[46] = system: Streptococcus mutans UA159
[47] = system: Streptococcus gordonii ATCC 10558
[48] = system: Streptococcus mutans GS-5
[49] = system: Streptococcus sanguinis ATCC 49295

With C[C@H](NC(=O)[C@H](CCCN=C(N)N)NC(=O)[C@H](Cc1ccc(O)cc1)NC(=O)[C@H](Cc1cnc[nH]1)NC(=O)[C@H](Cc1c[nH]c2ccccc12)NC(=O)[C@H](CCCN=C(N)N)NC(=O)[C@H](Cc1c[nH]c2ccccc12)NC(=O)[C@H](C)NC(=O)[C@@H](NC(=O)CN)[C@@H](C)O)C(=O)N[C@@H](CCCN=C(N)N)C(=O)N[C@@H](CO)C(=O)O [GTAWRWHYRARS] the MIC [1] was ≥ 82.8 µM, the MIC [2] was > 82.8 µM and the MIC [3] was ≥ 82.8 µM. For the same compound, the MIC [4] was ≥ 82.8 µM, the MIC [5] was ≥ 82.8 µM and the MIC [6] was ≥ 82.8 µM. The MIC [7] was ≥ 82.8 µM, the MIC (Pseudomonas aeruginosa) was > 331 µM and the MIC [8] was ≥ 82.8 µM. The MIC [9] was > 82.8 µM, the MIC [10] was 82.8 µM (≈ 128 µg/mL) and the MIC [11] was ≥ 82.8 µM. The MIC (Escherichia coli) was 82.8 µM (≈ 128 µg/mL).

CC[C@H](C)[C@H](NC(=O)[C@@H](NC(=O)[C@H](CO)NC(=O)[C@H](Cc1ccccc1)NC(=O)[C@H](CC(C)C)NC(=O)[C@H](CCCN=C(N)N)NC(=O)[C@@H](NC(=O)[C@H](CC(C)C)NC(=O)CN)[C@@H](C)O)C(C)C)C(=O)N[C@@H](CCCCN)C(=O)O [GLTRLFSVIK] gave an MIC [12] of 14.1 µM (≈ 16 µg/mL), an MIC [13] of 14.1 µM (≈ 16 µg/mL) and an MIC [14] of 28.2 µM (≈ 32 µg/mL). The MIC [15] was ≥ 56.5 µM, the MIC [16] was 14.1 µM (≈ 16 µg/mL) and the MIC [17] was 14.1 µM (≈ 16 µg/mL). For the same compound, the MIC (Staphylococcus sciuri) was ≥ 226 µM, the MIC [18] was 7.06 µM (≈ 8 µg/mL) and the MIC [19] was 28.2 µM (≈ 32 µg/mL). For the same compound, the MIC [20] was 28.2 µM (≈ 32 µg/mL), the MIC (Microsporum canis) was 0.624 µM (≈ 0.707 µg/mL) and the MIC [21] was 7.06 µM (≈ 8 µg/mL). The MIC [22] was 28.2 µM (≈ 32 µg/mL), the MIC (Proteus mirabilis) was ≥ 226 µM and the MIC [23] was 0.882 µM (≈ 1 µg/mL). For the same compound, the MIC [24] was ≥ 226 µM, the MIC (Staphylococcus simulans) was ≥ 226 µM and the MIC [25] was 0.882 µM (≈ 1 µg/mL). The MIC [26] was ≥ 56.5 µM, the MIC [27] was ≥ 56.5 µM and the MIC [28] was ≥ 56.5 µM. For the same compound, the MIC [29] was 28.2 µM (≈ 32 µg/mL).

With CC[C@H](C)[C@H](NC(=O)[C@H](CCCNC(=N)N)NC(=O)[C@H](CCC(N)=O)NC(=O)[C@@H](NC(=O)[C@@H](NC(=O)[C@H](CCCNC(=N)N)NC(=O)[C@H](CCCCN)NC(=O)[C@H](Cc1ccccc1)NC(=O)CN)[C@@H](C)CC)C(C)C)C(=O)N[C@@H](CCCCN)C(=O)N[C@@H](CC(=O)O)C(=O)N[C@@H](Cc1ccccc1)C(=O)N[C@@H](CC(C)C)C(=O)N[C@@H](CCCNC(=N)N)C(=O)N[C@@H](CC(N)=O)C(=O)N[C@@H](CC(C)C)C(=O)N[C@H](C(N)=O)C(C)C [GFKRIVQRIKDFLRNLV] the MIC [30] was 3.12 µM (≈ 6.57 µg/mL), the MIC [31] was 6.25 µM (≈ 13.1 µg/mL) and the MIC [32] was 6.25 µM (≈ 13.1 µg/mL). It also gave an MIC [33] of 3.1 µM (≈ 6.51 µg/mL), an MIC [34] of 6.25 µM (≈ 13.1 µg/mL) and an MIC [35] of 25 µM (≈ 52.5 µg/mL). The MIC [36] was 7 µM and 3.1 µM, the MIC [37] was 1.6 µM (≈ 3.36 µg/mL) and the MIC [38] was 7.5 µM and 3.1 µM and 7 µM. The MIC [39] was 6.25 µM (≈ 13.1 µg/mL), the MIC [40] was 4.4 µM (≈ 9.25 µg/mL) and the MIC [41] was 6.25 µM (≈ 13.1 µg/mL). For the same compound, the MIC [42] was 16 µM (≈ 33.6 µg/mL), the MIC [43] was 1.6 µM and 4 µM and the MIC [44] was ≥ 32 µM. For the same compound, the MIC [45] was 2 µM (≈ 4.2 µg/mL), the MIC (Escherichia coli K-12) was 7.5 µM and 14 µM and the MIC (Escherichia coli E423-17) was 16 µM (≈ 33.6 µg/mL).

For CC(C)C[C@H](NC(=O)[C@H](CCCN=C(N)N)NC(=O)[C@H](Cc1ccccc1)NC(=O)[C@H](Cc1ccccc1)NC(=O)[C@@H](N)[C@@H](C)O)C(=O)N[C@@H](Cc1ccccc1)C(=O)N[C@@H](CC(N)=O)C(=O)N[C@@H](CCCN=C(N)N)C(=O)N[C@@H](CO)C(=O)N[C@@H](Cc1ccccc1)C(=O)N[C@H](C(=O)NCC(=O)N[C@@H](CCCN=C(N)N)C(=O)N[C@@H](CCCN=C(N)N)C(=O)N[C@@H](CCCN=C(N)N)C(=O)N[C@@H](CCCN=C(N)N)C(=O)N[C@@H](CO)C(=O)N[C@H](C(=O)N[C@@H](CCC(N)=O)C(=O)N[C@@H](Cc1c[nH]c2ccccc12)C(=O)N[C@@H](CS)C(=O)N[C@@H](C)C(=O)O)C(C)C)[C@@H](C)O [TFFRLFNRSFTGRRRRSVQWCA], the MIC [46] was 3.82 µM (≈ 10.7 µg/mL), the MIC [47] was 17.8 µM (≈ 49.8 µg/mL) and the MIC [48] was 4.46 µM (≈ 12.4 µg/mL). For the same compound, the MIC [49] was ≥ 35.7 µM.
